Data reported in US5385842A, “Anthraquinones as inhibitors of sulfide production from sulfate-reducing bacteria” (E. I. Du Pont de Nemours and Company, priority 1993, dated 1995).
Counter-ions that a name gives are not always drawn.

tested on: Desulfovibrio desulfuricans G100A; assay: microbe, parasite or virus in culture; format: cell-based; details: not given

Compound	inhibition of sulfide production (in words)
Nc1cccc2c1C(=O)c1ccccc1C2=O [1-Aminoanthraquinone]	inhibited sulfide formation

same assay, conditions: 10 ppm

Compound	% Inhib. (inhibition of sulfide production)
1-Amino-4[4-[[4-chloro-6-[2,3 or 4-sulfophenyl]-amino]-1,3,5-triazin-2-yl]amino]-3-sulfophenyl]-amino]-9,10-dihyro-9,10-dioxo-2-anthracenesulfonic acid [Reactive blue 2]	17.5%

same assay, conditions: Desulfovibrio desulfuricans, G100A, read-out: % Inhib. (inhibition of sulfide production)

Compound	inhibition at 10 ppm	inhibition at 30 ppm	inhibition at 10 µg/mL
Nc1cccc2c1C(=O)c1ccccc1C2=O [1-Aminoanthraquinone]	28.4%	–	–
O=C1c2ccccc2C(=O)C2CC=CCC12 (stereo not drawn) [1,4,4a,9a-Tetrahydroanthraquinone]	0 to 7%	–	–
O=C1c2ccccc2C(=O)c2c(O)ccc(O)c21 [1,4-Dihydroxyanthraquinone]	–	5.2%	–
COc1cccc2c1C(=O)c1c(O)c3c(c(O)c1C2=O)C[C@@](O)(C(=O)CO)C[C@@H]3O[C@H]1C[C@H](N)[C@H](O)[C@H](C)O1 [Adriamycin hydrochloride, 10-[(3-Amino-2,3,6-trideoxy-alpha-L-lyxo-hexopyranosyl)oxy]-7,8,9,10-tetrahydro-6,8,11-trihydroxy-8-(hydroxyacetyl)-1-methoxy-5,12-naphthacenedione hydrochloride, reference compound]	–	55.7%	–
O=C(Nc1cccc2c1C(=O)c1cccc(Nc3cccc4c3C(=O)c3cccc(NC(=O)c5ccccc5)c3C4=O)c1C2=O)c1ccccc1 [4,5'-Dibenzamido-1,1'-dianthrimide, N,N'-[Iminobis(9,10-dihydro-9,10-dioxo-5,1-anthracenediyl)]bisbenzamide]	–	0%	–
O=C1c2c(O)ccc(O)c2C(=O)c2c(O)c(O)c(O)c(O)c21 [Alizarin cyanin, 1,2,3,4,5,8-Hexahydroxyanthraquinone]	40.6%	–	–
O=C1c2ccccc2C(=O)c2c(Nc3cccc4c3C(=O)c3ccccc3C4=O)cccc21 [Dianthrimide, 1,1'-Iminobis-9,10-anthracenedione]	–	2.6%	–
O=C1c2cccc(OCc3ccccc3)c2C(=O)c2c(OCc3ccccc3)cccc21 [1,8-Dibenzyloxyanthraquinone, 1,8-Bis(phenylmethoxy)-9,10-anthracenedione]	–	4.5%	–
CCNc1ccc(NCC)c2c1C(=O)c1ccccc1C2=O [Sudan blue, 1,4-Bis(ethylamino)-9,10-anthracenedione]	–	1.3%	–
Cc1cc(O)c2c(c1O)C(=O)c1cccc(O)c1C2=O [Islandicin, 1,4,5-Trihydroxy-2-methyl-9,10-anthracenedione]	50%	–	–
O=C1c2ccccc2C(=O)c2c1cc(S(=O)(=O)O)c(O)c2O [Alizarin red S monohydrate, 3,4-Dihydroxy-9,10-dioxo-2-anthracenesulfonic acid]	0%	–	–
Cc1ccc(Nc2ccc(Nc3ccc(C)cc3S(=O)(=O)O)c3c2C(=O)c2ccccc2C3=O)c(S(=O)(=O)O)c1 [Acid green 25, 2,2'-[(9,10-Dihydro-9,10-dioxo-1,4-anthracenediyl)-diimino]bis[5-methylbenzenesulfonic acid],di Na salt]	38.8%	–	–
Cc1c(C(=O)O)c(O)cc2c1C(=O)c1c(O)c([C@@H]3O[C@H](CO)[C@@H](O)[C@H](O)[C@H]3O)c(O)c(O)c1C2=O [Carminic acid, 7-β-D-Glucopyranosyl-9,10-dihydro-3,5,6,8-tetra-hydroxy-1-methyl-9,10-dioxo-2-anthracene-carboxylic acid]	–	–	0%
O=C1c2ccccc2C(=O)c2c(O)cccc21 [1-Hydroxyanthraquinone]	59.3%	–	–
CNc1ccc(NC)c2c1C(=O)c1ccccc1C2=O [1,4-Bis(methylamino)-anthraquinone]	–	8.6%	–
O=C(O)c1ccc2c(c1)C(=O)c1ccccc1C2=O [Anthraquinone-2-carboxylic acid]	–	–	22.6%
CNc1cccc2c1C(=O)c1ccccc1C2=O [1-(Methylamino)anthraquinone]	–	–	19.1%
O=C1c2cccc(Cl)c2C(=O)c2c(Cl)cccc21 [1,8-Dichloroanthraquinone]	–	3.9%	–
Cc1cc(C)c(S(=O)(=O)O)c(C)c1Nc1ccc(Nc2c(C)cc(C)c(S(=O)(=O)O)c2C)c2c1C(=O)c1ccccc1C2=O [Acid blue 80, 3,3'-[(9,10-Dihydro-9,10-dioxo-1,4-anthracenediyl)adiimino]bis[2,4,6-trimethylbenzenesulfonicacid], di Na salt]	0%	–	–
O=c1c2ccccc2c(=O)c2c1cc(Cl)c1[nH]c3c([nH]c12)c(Cl)cc1c(=O)c2ccccc2c(=O)c13 [7,16-Dichloroindanthrone, 7,16-Dichloro-6,15-dihydro-5,9,14,18-anthrazinetetrone]	43.8%	–	–
O=C1c2ccccc2C(=O)c2c([N+](=O)[O-])ccc(Nc3ccc([N+](=O)[O-])c4c3C(=O)c3ccccc3C4=O)c21 [1,1'-Iminobis(4-nitro-9,10-anthracenedione)]	–	5.7%	–
O=C1c2cc(Cl)c(Cl)cc2C(=O)c2c(O)ccc(O)c21 [6,7-Dichloro-1,4-dihydroxyanthraquinone]	–	5.7%	–
Cc1cc(Br)c2c(c1N)C(=O)c1ccccc1C2=O [1-Amino-4-bromo-2-methylanthraquinone]	–	–	8%
O=C1c2ccccc2C(=O)c2cc(NC(=O)C3CC3)ccc21 [2-(Cyclopropylcarboxamido)anthraquinone]	–	2.6%	–

Compound	inhibition at 10 ppm	inhibition at 30 ppm	inhibition at 10 µg/mL
CC(C)Nc1ccc(NC(C)C)c2c1C(=O)c1ccccc1C2=O [1,4-Di(isopropylamino)anthraquinone, 1,4-Bis[(1-methylethyl)amino]-9,10-anthracenedione]	–	5%	–
CCCCCNc1ccc(NCCCCC)c2c1C(=O)c1ccccc1C2=O [Oil blue N, 1,4-Bis(pentylamino)-9,10-anthracenedione]	–	3.6%	–
O=C1c2cccc(O)c2C(=O)c2c(O)cc(CO)cc21 [Aloe-emodin, 1,8-Dihydroxy-3-(hydroxymethyl)-anthraquinone]	43.8%	–	–
O=C1c2ccccc2C(=O)c2ccccc21 [Anthraquinone]	37.5%	–	–
O=C1c2ccccc2C(=O)c2c(O)c(S(=O)(=O)O)cc(O)c21 [9,10-Dihydro-1,4-dihydroxy-9,10-dioxo-2-anthracenesulfonic acid]	–	7.8%	–
O=C1c2ccc(O)c(O)c2C(=O)c2cccc(S(=O)(=O)O)c21 [Alizarin-5-sulfonic acid, 9,10-Dihydro-5,6-dihydroxy-9,10-dioxo-1-anthracenesulfonic acid]	–	7.1%	–
O=C1c2ccc(O)cc2C(=O)c2c1ccc(O)c2O [Anthrapurpurin, 1,2,7-Trihydroxyanthraquinone]	37.5%	–	–
COc1cc(O)c2c(c1)C(=O)c1cc(C)cc(O)c1C2=O [Physcion, 1,8-Dihydroxy-3-methoxy-6-methyl-9,10-anthracenedione]	34.4%	–	–
Cc1ccc(Nc2ccc(Nc3ccc(C)cc3)c3c2C(=O)c2cccc(O)c2C3=O)cc1 [Sudan green, 5-hydroxy-1,4-bis[(4-methylphenyl)amino]-9,10-anthracenedione]	–	0%	–
COc1cc(N)c2c(c1N)C(=O)c1ccccc1C2=O [Disperse red 11, 1,4-Diamino-2-methoxyanthraquinone]	–	0%	–
Cc1ccc2c(c1)C(=O)c1ccccc1C2=O [2-Methylanthraquinone]	–	10.4%	–
COc1cc2c(cc1C)C(=O)c1ccccc1C2=O [2-Methoxy-3-methyl-9,10-anthracenedione]	–	5%	–
Cc1cc(O)c2c(c1)C(=O)c1cc(O)cc(O)c1C2=O [Emodin, 6-Methyl-1,3,8-trihydroxyanthraquinone]	–	2.6%	–
CNc1ccc(N)c2c1C(=O)c1ccccc1C2=O [1-Amino-4-(methylamino)anthraquinone]	–	0%	–
O=C1c2ccccc2C(=O)c2c1ccc1ccccc21 [Benz[a]anthracene-7,12-dione]	–	52.9%	–
Nc1c(S(=O)(=O)O)cc(Nc2cccc(S(=O)(=O)CCOS(=O)(=O)O)c2)c2c1C(=O)c1ccccc1C2=O [Remazol Brilliant blue R, 1-Amino-9,10-dihydro-9,10-dioxo-4-[[3[[2-(sulfoxy)-ethyl]sulfonyl]phenyl]amino]-2-anthracenesulfonic acid, disodium salt]	12.4%	–	–
O=C1c2c(O)c(O)c(S(=O)(=O)O)c(O)c2C(=O)c2c(O)c(O)c(S(=O)(=O)O)c(O)c21 [Acid alizarin blue BB, 9,10-Dihydro-1,3,4,5,7,8-hexahydroxy-9,10-dioxo-2,6-anthracenedisulfonic acid]	–	0%	–
CC(=O)N(C)c1ccc(Nc2cc(S(=O)(=O)O)c(N)c3c2C(=O)c2ccccc2C3=O)cc1 [Acid blue 41, 4-[[4-(Acetylmethylamino)phenyl]amino]-1-amino-9,10-dihydro-9,10-dioxo-2-anthracenesulfonic acid, Na salt]	0%	–	–
Cc1cc(O)c2c(c1O)C(=O)c1c(O)ccc(O)c1C2=O [Cynodontin, 1,4,5,8-Tetrahydroxy-2-methyl-9,10-anthracenedione]	34.4%	–	–
Nc1c(Br)cc(Br)c2c1C(=O)c1ccccc1C2=O [1-Amino-2,4-dibromoanthraquinone]	44.6%	–	–
Cc1cc(O)c2c(c1O)C(=O)c1cc(O)cc(O)c1C2=O [Catenarin, 1,4,5,7-Tetrahydroxy-2-methyl-9,10-anthracenedione]	37.5%	–	–
N#[N+]c1cccc2c1C(=O)c1ccccc1C2=O [1-Aminoanthraquinone diazonium salt]	–	20.8%	–
Cc1ccc(Nc2ccc(Nc3ccc(C)cc3)c3c2C(=O)c2ccccc2C3=O)cc1 [Solvent green 3, 1,4-Bis[(4-methylphenyl)amino]9,10-anthracenedione]	–	4.3%	–
Nc1cc(S(=O)(=O)O)c(O)c2c1C(=O)c1c(O)c(S(=O)(=O)O)cc(N)c1C2=O [Acid blue 45, 4,8-Diamino-9,10-dihydro-1,5-dihydroxy-9,10-dioxo-2,6-anthracenedisulfonic acid, di Na salt]	0%	–	–

same assay, conditions: Table III, Example 3

Compound	% inhibition of sulfide formation
Nc1cccc2c1C(=O)c1ccccc1C2=O [1-Aminoanthraquinone]	72%
